The target in experiment [1] is T1, Vascular endothelial growth factor receptor 2 (Homo sapiens, UniProt P35968). Nature of the experiment: (§1) VEGFR2 Cellular Assay: Automated FLIPR (Fluorometric Imaging Plate Reader) technology was used to screen for inhibitors of VEGF induced increases in intracellular calcium levels in fluorescent dye loaded endothelial cells. HUVEC (human umbilical vein endothelial cells) (Clonetics) were seeded in 384-well fibronectin coated black-walled plates overnight @ 37° C./5% CO2. Cells were loaded with calcium indicator Fluo-4 for 45 minutes at 37° C. Cells were washed 2 times (Elx405, Biotek Instruments) to remove extracellular dye. For screening, cells were pre-incubated with test agents for 30 minutes, at a single concentration (10 uM) or at concentrations ranging from 0.0001 to 10.0 uM followed by VEGF165 stimulation (10 ng/mL). Changes in fluorescence at 516 nm were measured simultaneously in all 384 wells using a cooled CCD camera. Data were generated by determining max-min fluorescence levels for unstimulated, stimulated, and drug treated samples. In kind it is cell-based, Endothelial cell.

Experiment [2] concerns the target T1, Vascular endothelial growth factor receptor 2. Nature of the experiment: VEGFR2 Kinase Assay: Biochemical KDR kinase assays were performed in 96 well microtiter plates that were coated overnight with 75 ug/well of poly-Glu-Tyr (4:1) in 10 mM Phosphate Buffered Saline (PBS), pH 7.4. The coated plates were washed with 2 mls per well PBS+0.05% Tween-20 (PBS-T), blocked by incubation with PBS containing 1% BSA, then washed with 2 mls per well PBS-T prior to starting the reaction. Reactions were carried out in 100 uL reaction volumes containing 2.7 uM ATP in kinase buffer (50 mM Hepes buffer pH 7.4, 20 mM MgCl2, 0.1 mM MnCl2 and 0.2 mM Na3VO4). Test compounds were reconstituted in 100% DMSO and added to the reaction to give a final DMSO concentration of 5%. Reactions were initiated by the addition 20 ul per well of kinase buffer containing 200-300 ng purified cytoplasmic domain KDR protein (BPS Bioscience, San Diego, Calif.). Following a 15 minute incubation at 30° C., the reactions were washed 2 mls per well PBS-T. 100 ul of a monoclonal anti-phosphotyrosine antibody-peroxidase conjugate diluted 1:10,000 in PBS-T was added to the wells for 30 minutes. Following a 2 mls per well wash with PBS-Tween-20, 100 ul of 0-Phenylenediamine Dihydrochloride in phosphate-citrate buffer, containing urea hydrogen peroxide, was added to the wells for 7-10 minutes as a colorimetric substrate for the peroxidase. The reaction was terminated by the addition of 100 ul of 2.5N H2SO4 to each well and read using a microplate ELISA reader set at 492 nm.

Experiment [3] addresses T2, Platelet-derived growth factor receptor beta (Homo sapiens, UniProt P09619). The experiment is described as §1, with “PDGFRbeta : Automated” for “VEGFR2 Cellular Assay: Automated”, “of PDGF-induced” for “of VEGF induced”, “cells. NHDF-Ad (Normal Human Dermal Fibroblasts, Adult; Lonza)” for “cells. HUVEC (human umbilical vein endothelial cells) (Clonetics)”, “by PDGF-BB” for “by VEGF165”, “stimulation (30” for “stimulation (10”. In kind it is cell-based, Endothelial cell.

Experiment [4] deals with T2, Platelet-derived growth factor receptor beta. Nature of the experiment: PDGFRbeta Kinase Assay: Biochemical PDGFRbeta kinase assays were performed in 96 well microtiter plates that were coated overnight with 75 ug of poly-Glu-Tyr (4:1) in 10 mM Phosphate Buffered Saline (PBS), pH 7.4. The coated plates were washed with 2 mls per well PBS+0.05% Tween-20 (PBS-T), blocked by incubation with PBS containing 1% BSA, then washed with 2 mls per wellPBS-T prior to starting the reaction. Reactions were carried out in 100 uL reaction volumes containing 36 uM ATP in kinase buffer (50 mM Hepes buffer pH 7.4, 20 mM MgCl2, 0.1 mM MnCl2 and 0.2 mM Na3VO4). Test compounds were reconstituted in 100% DMSO and added to the reaction to give a final DMSO concentration of 5%. Reactions were initiated by the addition 20 ul per well of kinase buffer containing 200-300 ng purified cytoplasmic domain PDGFR-b protein (Millipore). Following a 60 minute incubation at 30° C., the reactions were washed 2 mls per well PBS-T. 100 ul of a monoclonal anti-phosphotyrosine antibody-peroxidase conjugate diluted 1:10,000 in PBS-T was added to the wells for 30 minutes. Following a 2 mls per well wash with PBS-Tween-20, 100 ul of 0-Phenylenediamine Dihydrochloride in phosphate-citrate buffer, containing urea hydrogen peroxide, was added to the wells for 7-10 minutes as a colorimetric substrate for the peroxidase. […].

Four molecules from ChEMBL document CHEMBL3886544, “Substituted dialkyl(oxido)-lambda4-sulfanylidene nicotinamide derivatives as kinase inhibitors” (2016) can be followed below.

T1 sequence (P35968 whole entry): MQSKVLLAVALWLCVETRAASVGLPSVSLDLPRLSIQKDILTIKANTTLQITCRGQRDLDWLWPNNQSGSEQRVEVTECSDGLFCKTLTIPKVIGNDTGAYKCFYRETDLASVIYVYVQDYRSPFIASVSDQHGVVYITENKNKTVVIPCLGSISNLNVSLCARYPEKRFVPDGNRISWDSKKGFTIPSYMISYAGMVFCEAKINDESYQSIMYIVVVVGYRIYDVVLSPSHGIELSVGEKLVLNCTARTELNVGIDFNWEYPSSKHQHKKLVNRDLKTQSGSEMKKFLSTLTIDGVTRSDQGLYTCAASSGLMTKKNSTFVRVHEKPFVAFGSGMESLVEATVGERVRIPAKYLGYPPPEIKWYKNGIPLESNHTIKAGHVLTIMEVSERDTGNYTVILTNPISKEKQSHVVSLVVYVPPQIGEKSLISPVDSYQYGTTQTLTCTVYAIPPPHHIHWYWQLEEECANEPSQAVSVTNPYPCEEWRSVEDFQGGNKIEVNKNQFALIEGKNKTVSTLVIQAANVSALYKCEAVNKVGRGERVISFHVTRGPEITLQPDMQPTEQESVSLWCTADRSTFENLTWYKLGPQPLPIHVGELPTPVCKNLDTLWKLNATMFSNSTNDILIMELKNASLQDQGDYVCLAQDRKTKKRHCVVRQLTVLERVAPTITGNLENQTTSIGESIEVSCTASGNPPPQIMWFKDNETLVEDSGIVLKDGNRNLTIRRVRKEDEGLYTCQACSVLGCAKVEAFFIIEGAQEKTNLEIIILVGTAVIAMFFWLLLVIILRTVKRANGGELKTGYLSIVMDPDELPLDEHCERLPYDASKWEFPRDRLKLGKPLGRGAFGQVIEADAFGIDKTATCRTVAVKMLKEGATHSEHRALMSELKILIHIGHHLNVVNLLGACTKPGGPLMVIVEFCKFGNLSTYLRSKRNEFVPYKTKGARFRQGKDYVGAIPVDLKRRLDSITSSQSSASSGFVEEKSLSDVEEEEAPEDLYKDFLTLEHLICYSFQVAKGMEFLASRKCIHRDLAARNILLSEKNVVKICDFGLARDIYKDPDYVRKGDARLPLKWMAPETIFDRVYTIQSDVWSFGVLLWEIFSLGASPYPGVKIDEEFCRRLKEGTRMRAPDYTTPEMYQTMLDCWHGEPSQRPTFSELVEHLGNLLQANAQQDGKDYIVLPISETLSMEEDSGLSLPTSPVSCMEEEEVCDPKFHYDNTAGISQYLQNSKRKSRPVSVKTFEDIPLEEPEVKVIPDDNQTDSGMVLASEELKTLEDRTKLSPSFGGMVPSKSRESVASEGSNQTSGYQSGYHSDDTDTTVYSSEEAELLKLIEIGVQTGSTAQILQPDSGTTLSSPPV
T2 sequence (P09619 whole entry): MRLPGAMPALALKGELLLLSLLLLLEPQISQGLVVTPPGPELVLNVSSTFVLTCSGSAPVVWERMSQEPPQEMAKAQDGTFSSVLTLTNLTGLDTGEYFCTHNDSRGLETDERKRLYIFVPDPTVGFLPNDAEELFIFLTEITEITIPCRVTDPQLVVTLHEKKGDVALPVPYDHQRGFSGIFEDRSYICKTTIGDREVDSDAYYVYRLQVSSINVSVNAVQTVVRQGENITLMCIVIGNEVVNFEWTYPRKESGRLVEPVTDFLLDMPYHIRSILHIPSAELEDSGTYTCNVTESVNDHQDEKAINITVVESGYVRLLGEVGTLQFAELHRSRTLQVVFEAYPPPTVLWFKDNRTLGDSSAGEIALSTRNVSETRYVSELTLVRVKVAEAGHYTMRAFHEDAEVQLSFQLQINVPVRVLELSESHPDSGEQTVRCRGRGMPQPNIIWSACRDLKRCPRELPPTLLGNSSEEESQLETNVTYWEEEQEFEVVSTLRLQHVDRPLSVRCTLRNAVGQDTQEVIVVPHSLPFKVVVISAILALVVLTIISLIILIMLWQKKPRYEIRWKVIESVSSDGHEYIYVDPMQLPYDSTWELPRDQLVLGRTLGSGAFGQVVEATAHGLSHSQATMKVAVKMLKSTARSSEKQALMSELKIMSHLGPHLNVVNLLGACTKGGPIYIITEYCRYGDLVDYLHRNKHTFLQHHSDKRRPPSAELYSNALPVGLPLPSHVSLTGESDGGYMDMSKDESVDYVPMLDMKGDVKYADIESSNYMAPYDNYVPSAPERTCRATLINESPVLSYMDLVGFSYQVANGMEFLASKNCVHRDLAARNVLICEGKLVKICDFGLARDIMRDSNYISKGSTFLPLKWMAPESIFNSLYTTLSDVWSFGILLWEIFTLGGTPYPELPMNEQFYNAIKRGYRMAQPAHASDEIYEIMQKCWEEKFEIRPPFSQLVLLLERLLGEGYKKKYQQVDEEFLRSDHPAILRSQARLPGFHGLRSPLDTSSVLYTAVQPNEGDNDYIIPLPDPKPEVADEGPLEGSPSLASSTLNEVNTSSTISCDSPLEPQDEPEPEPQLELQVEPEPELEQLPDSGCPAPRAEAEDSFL

As to `Cc1ccoc1C(=O)Nc1cccc(C#Cc2cncc(C(=O)N=S(C)(=O)CCCN3CCN(CCOCCO)CC3)c2)c1` (stereo not drawn), the IC50 amounted to 10 nM in experiment [1] and 9 nM in experiment [2].
In experiment [2], `Cc1ccoc1C(=O)Nc1cccc(C#Cc2cc(C(=O)N=S(C)(=O)CC(=O)N3CC[C@H](O)C3)cnc2N)c1` (stereo partly drawn) returned an IC50 of 3 nM.
`Cc1ccoc1C(=O)Nc1cccc(C#Cc2cncc(C(=O)N=S(C)(=O)CCCO)c2)c1` (stereo not drawn): the concentration for half-maximal inhibition (IC50) in experiment [1] is 1 nM; in experiment [2], 14 nM; in experiment [3] it was 31 nM.
On to `Cc1ccoc1C(=O)Nc1cccc(C#Cc2cncc(C(=O)N=[S@@](C)(=O)CCCO)c2)c1`, for which the IC50 in experiment [4] stood at 18 nM; in experiment [2], 3 nM.

In general, IC50 refers to the concentration that inhibits the measured activity by half.
